Data published in ChEMBL document CHEMBL2429763, “Nonbenzamidine acylsulfonamide tissue factor-factor VIIa inhibitors” (Bioorg Med Chem Lett, 2013).
Calls of active or inactive are those of the source. No cut-off for these calls is given here.

How the values were obtained:
Coagulation factor X = Coagulation factor X (Homo sapiens, UniProt P00742); experiment: Inhibition of factor 10a (unknown origin)
Prothrombin = Prothrombin (Homo sapiens, UniProt P00734); experiment: Inhibition of thrombin (unknown origin)
Trypsin = Trypsin (Homo sapiens, UniProt P07477+P07478+P35030); experiment: Inhibition of trypsin (unknown origin); format: protein assay
[1] = molecular target: Coagulation factor VII/tissue factor (Homo sapiens, UniProt P08709); experiment: Inhibition of human recombinant soluble tissue factor-factor 7a using H-D-Ile-Pro-Arg-pNA as substrate; format: protein-complex assay
[2] = Anticoagulant activity in plasma (unknown origin) assessed as concentration required to double prothrombin time; format: functional, unidentified
[3] = Volume of distribution at steady state in dog at 0.2 mg/kg, iv; format: ADME, organism-based, Canis lupus familiaris; design: dose 0.2 mg/kg, route intravenous; conditions: in vivo, read-out: Vdss
[4] = Half life in dog at 0.2 mg/kg, iv; format: ADME, organism-based, Canis lupus familiaris; design: dose 0.2 mg/kg, route intravenous; conditions: in vivo
[5] = Oral bioavailability in dog at 0.5 mg/kg; format: ADME, organism-based, Canis lupus familiaris; conditions: in vivo
[6] = Clearance in dog at 0.2 mg/kg, iv; format: ADME, organism-based, Canis lupus familiaris; design: dose 0.2 mg/kg, route intravenous; conditions: in vivo
[7] = Dissociation constant, pKa of the compound; format: physicochemical
[8] = molecular target: T1, Coagulation factor VII/tissue factor (Homo sapiens) (UniProt P08709+P13726); experiment: Competitive inhibition of human recombinant soluble tissue factor-factor 7a using tripeptide as substrate; format: protein-complex assay
[9] = molecular target: T1, Coagulation factor VII/tissue factor (Homo sapiens); experiment: Noncompetitive inhibition of human recombinant soluble tissue factor-factor 7a using physiological substrate; format: protein-complex assay

Sequence of Coagulation factor X (P00742 41-179 limits assumed): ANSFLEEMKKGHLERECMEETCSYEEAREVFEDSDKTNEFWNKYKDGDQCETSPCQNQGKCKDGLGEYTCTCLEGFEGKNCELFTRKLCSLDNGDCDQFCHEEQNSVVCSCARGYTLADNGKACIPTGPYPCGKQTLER
Sequence of Coagulation factor X (P00742 235-488 limits assumed): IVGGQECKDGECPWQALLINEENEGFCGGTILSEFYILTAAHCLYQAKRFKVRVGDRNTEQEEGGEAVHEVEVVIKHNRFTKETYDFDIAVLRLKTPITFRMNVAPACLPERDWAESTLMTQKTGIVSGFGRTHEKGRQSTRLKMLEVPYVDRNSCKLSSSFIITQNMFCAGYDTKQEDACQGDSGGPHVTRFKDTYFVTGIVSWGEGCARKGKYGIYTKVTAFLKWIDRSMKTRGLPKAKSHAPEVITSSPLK
Sequence of Coagulation factor VII/tissue factor (P08709 61-212 limits assumed): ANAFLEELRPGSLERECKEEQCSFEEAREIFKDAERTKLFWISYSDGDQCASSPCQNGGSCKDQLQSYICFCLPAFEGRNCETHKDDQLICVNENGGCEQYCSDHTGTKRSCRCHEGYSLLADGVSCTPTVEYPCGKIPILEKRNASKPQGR
Sequence of Coagulation factor VII/tissue factor (P08709 213-466 limits assumed): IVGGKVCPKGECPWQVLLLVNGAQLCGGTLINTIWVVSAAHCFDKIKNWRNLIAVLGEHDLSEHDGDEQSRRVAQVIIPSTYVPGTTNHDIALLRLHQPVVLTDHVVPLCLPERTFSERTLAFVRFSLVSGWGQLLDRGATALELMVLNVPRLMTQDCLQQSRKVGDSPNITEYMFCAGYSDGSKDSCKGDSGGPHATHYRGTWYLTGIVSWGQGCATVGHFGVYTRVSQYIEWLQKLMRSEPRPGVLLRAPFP
Sequence of Coagulation factor VII/tissue factor (P13726 33-295 partner limits assumed): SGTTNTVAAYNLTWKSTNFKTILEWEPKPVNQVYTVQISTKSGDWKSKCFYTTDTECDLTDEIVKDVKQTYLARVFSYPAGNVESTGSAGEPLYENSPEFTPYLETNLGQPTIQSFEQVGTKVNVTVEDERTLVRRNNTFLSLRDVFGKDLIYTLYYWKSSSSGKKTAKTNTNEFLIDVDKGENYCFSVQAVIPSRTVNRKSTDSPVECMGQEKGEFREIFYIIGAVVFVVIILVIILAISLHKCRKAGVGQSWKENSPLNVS

Row | SMILES | Ki (Coagulation factor X) | Ki (Prothrombin) | Ki (Trypsin) | Ki [1] | also measured
1 | CCOc1cc(C(Nc2ccc3cnccc3c2)C(=O)NS(=O)(=O)c2cccc(S(C)(=O)=O)c2)ccc1OC(C)C (centres undefined) | > 8 µM | > 13 µM | > 5 µM | 145 nM | –
2 | CCOc1cc(C(Nc2ccc3cnccc3c2)C(=O)NS(=O)(=O)c2cccc(S(=O)(=O)NC)c2)ccc1OC(C)C (centres undefined) | 7 µM | > 13 µM | > 5 µM | 250 nM | –
3 | CCOc1cc([C@@H](Nc2ccc3c(N)nccc3c2)C(=O)NS(=O)(=O)c2ccccc2)ccc1OC(C)C | 7.3 µM | 6.9 µM | > 5 µM | – | 2PT [2]: 36 µM; Vd [3]: 1.5 L/kg; half-life [4]: 90 min; bioavailability [5]: 4%; clearance [6]: 24 mL/min/kg
4 | CCOc1cc(C(Nc2ccc3c(N)nccc3c2)C(=O)NS(=O)(=O)c2cccc(C(N)=O)c2)ccc1OC(C)C (centres undefined) | > 8 µM | > 13 µM | > 5 µM | 18 nM | –
5 | CCOc1cc(C(Nc2ccc3cnccc3c2)C(=O)NS(=O)(=O)c2cccc(S(=O)(=O)N(C)C)c2)ccc1OC(C)C (centres undefined) | 7.2 µM | > 13 µM | > 5 µM | 780 nM | –
6 | CCOc1cc(C(Nc2ccc3cnccc3c2)C(=O)NS(=O)(=O)c2ccccc2)ccc1OC(C)C (centres undefined) | 5.4 µM | > 13 µM | > 5 µM | 70 nM | pKa [7]: 7.8; inhibition [8]: Active; inhibition [9]: Active
7 | CCOc1cc(C(Nc2ccc(C(=N)N)cc2)C(=O)NS(=O)(=O)c2ccccc2)ccc1OC(C)C (centres undefined) | – | – | – | 1.3 nM | 2PT [2]: 4 µM; inhibition [8]: Active; inhibition [9]: Active
8 | CCOc1cc([C@H](Nc2ccc3c(N)nccc3c2)C(=O)NS(=O)(=O)c2ccccc2)ccc1OC(C)C | 8.2 µM | > 13 µM | > 5 µM | – | –
9 | CCOc1cc(C(Nc2ccc3c(N)nccc3c2)C(=O)NS(=O)(=O)c2ccc(N)cc2)ccc1OC(C)C (centres undefined) | 5.8 µM | 7.4 µM | > 5 µM | 9 nM | –
10 | CCOc1cc(C(Nc2ccc3c(N)noc3c2)C(=O)NS(=O)(=O)c2ccccc2)ccc1OC(C)C (centres undefined) | – | – | – | 1940 nM | –
11 | CCOc1cc(C(Nc2ccc3cnccc3c2)C(=O)NS(=O)(=O)c2ccccc2S(N)(=O)=O)ccc1OC(C)C (centres undefined) | > 8 µM | > 13 µM | > 5 µM | 73 nM | –
12 | CCOc1cc(C(Nc2ccc3c(N)nccc3c2)C(=O)NS(=O)(=O)c2cccc(O)c2)ccc1OC(C)C (centres undefined) | 5.5 µM | 11 µM | > 5 µM | 26 nM | –
13 | CCOc1cc(C(Nc2ccc3c(N)nccc3c2)C(=O)NS(=O)(=O)c2cccc(S(N)(=O)=O)c2)ccc1OC(C)C (centres undefined) | 5.9 µM | > 13 µM | > 5 µM | 10 nM | –
14 | CCOc1cc(C(Nc2ccc3cnccc3c2)C(=O)NS(=O)(=O)c2ccc(S(N)(=O)=O)cc2)ccc1OC(C)C (centres undefined) | > 8 µM | > 13 µM | > 5 µM | 320 nM | –
15 | CCOc1cc(C(Nc2ccc3nc(N)[nH]c3c2)C(=O)NS(=O)(=O)c2ccccc2)ccc1OC(C)C (centres undefined) | – | – | – | 670 nM | –
16 | CCOc1cc(C(Nc2ccc3c(N)nccc3c2)C(=O)NS(=O)(=O)c2ccc(C)cc2)ccc1OC(C)C (centres undefined) | 3.05 µM | 2.9 µM | 3.04 µM | 197 nM | –
17 | CCOc1cc(C(Nc2ccc3c(N)nccc3c2)C(=O)NS(=O)(=O)c2ccccc2)ccc1OC(C)C (centres undefined) | 3.5 µM | 4.3 µM | 4.7 µM | – | pKa [7]: 8.9; inhibition [8]: Active; inhibition [9]: Active
18 | CCOc1cc([C@@H](Nc2ccc3cnccc3c2)C(=O)NS(=O)(=O)c2ccccc2)ccc1OC(C)C | > 8 µM | > 13 µM | > 5 µM | 44 nM | 2PT [2]: >80 µM; Vd [3]: 0.6 L/kg; half-life [4]: 54 min; bioavailability [5]: 36%; clearance [6]: 9.3 mL/min/kg
19 | CCOc1cc(C(Nc2ccc3c(N)nccc3c2)C(=O)NS(=O)(=O)c2cccc(CO)c2)ccc1OC(C)C (centres undefined) | > 8 µM | 11 µM | > 5 µM | 28 nM | –
20 | CCOc1cc(C(Nc2ccc3cnccc3c2)C(=O)NS(=O)(=O)c2ccccc2S(C)(=O)=O)ccc1OC(C)C (centres undefined) | > 8 µM | 10.3 µM | > 5 µM | 12 nM | 2PT [2]: 76 µM
21 | CCOc1cc(C(Nc2ccc3cnccc3c2)C(=O)NS(=O)(=O)c2cccc(S(N)(=O)=O)c2)ccc1OC(C)C (centres undefined) | > 8 µM | > 13 µM | > 5 µM | 32 nM | –
22 | CCOc1cc(C(Nc2ccc3c(N)nccc3c2)C(=O)NS(=O)(=O)c2cccc(N)c2)ccc1OC(C)C (centres undefined) | > 8 µM | > 13 µM | > 5 µM | 48 nM | –
23 | CCOc1cc([C@@H](Nc2ccc3c(N)nccc3c2)C(=O)NS(=O)(=O)c2cccc(S(N)(=O)=O)c2)ccc1OC(C)C | 5.6 µM | 9.4 µM | > 5 µM | 2.8 nM | 2PT [2]: 14 µM
24 | CCOc1cc(C(Nc2ccc3c(N)ncnc3c2)C(=O)NS(=O)(=O)c2ccccc2)ccc1OC(C)C (centres undefined) | – | – | – | 390 nM | –
25 | CCOc1cc(C(Nc2ccc3cnccc3c2)C(=O)NS(=O)(=O)c2ccc(S(C)(=O)=O)cc2)ccc1OC(C)C (centres undefined) | > 8 µM | > 13 µM | > 5 µM | 8100 nM | –
26 | CCOc1cc(C(Nc2ccc3c(N)nccc3c2)C(=O)NS(=O)(=O)c2ccc(O)cc2)ccc1OC(C)C (centres undefined) | > 8 µM | > 13 µM | > 5 µM | 7 nM | –
27 | CCOc1cc([C@@H](Nc2ccc3cnccc3c2)C(=O)NS(=O)(=O)c2cccc(S(N)(=O)=O)c2)ccc1OC(C)C | > 8 µM | > 13 µM | > 5 µM | 17 nM | –
28 | CCOc1cc(C(Nc2ccc3c(N)n[nH]c3c2)C(=O)NS(=O)(=O)c2ccccc2)ccc1OC(C)C (centres undefined) | – | – | – | 2900 nM | –
29 | CCOc1cc(C(Nc2ccc3cnccc3c2)C(=O)NS(=O)(=O)c2ccccc2S(=O)(=O)CC)ccc1OC(C)C (centres undefined) | > 8 µM | 9.4 µM | > 5 µM | 6 nM | –
